{"source": "patent US20200157145A1", "about": "“NEUTRAL-CATIONIC PEPTOIDS AND USES THEREOF” (Stealth BioTherapeutics Corp, priority 2018, published 2020)", "test_system": "isolated guinea pig heart exposed to global ischemia", "assay": "Cardiac ischemia-reperfusion injury in isolated perfused guinea pig heart (global no-flow ischemia 20 min, reperfusion 120 min)", "method": "Procedures for the use of guinea pigs are in accordance with the guidelines established by the American Physiological Society. Adult male guinea pigs (200-300 g) will be anesthetized with a ketamine/xylazine cocktail (85/15 mg mL, respectively; ip delivery). Upon the absence of reflexes to ensure a deep plane of anesthesia, hearts will be excised via midline thoracotomy and immersed in ice-cold saline. Hearts will be cannulated by the aorta and perfused with a modified Krebs-Henseleit buffer containing (in mM): 118 NaCl, 24 NaHCO3, 4.75 KCl, 1.2 KH2PO4, 1.2 MgSO4, 2.0 CaCl2, and 10 glucose (gassed with 95/5% O2/CO2). Hearts will be placed in a buffer-filled perfusion chamber and maintained at 37° C. for the duration of the experiments.\nFollowing the initiation of perfusion, hearts will be instrumented for the simultaneous observation of mechanical and electrical function. A buffer-filled latex balloon will be inserted into the left ventricle (via the mitral valve) for the measurement of left ventricular developed pressure, with balloon volume adjusted to establish an end-diastolic pressure of 5-8 mmHg. Three electrodes will be placed into the buffer-filled perfusion chamber for the measurement of volume-conducted ECG. A pre-established protocol of electrode placement will be utilized to obtain a signal analogous to Lead II of a typical 12-lead ECG. All physiological parameters will be continuously monitored and stored on a personal computer using commercially available software (Chart, AD Instruments).\nAfter a 10-minute equilibration period, hearts will be divided into the following different treatment groups: 1. Control followed by I/R; 2. Administration of 1 nM ηArg-η2′6′-Dmt-ηLys-ηPhe-NH2 in the perfusate both before and after index ischemia; 3. Post-ischemic administration of 1 nM ηArg-η2′6′-Dmt-ηLys-ηPhe-NH2 using both a bolus dose (also 1 nM, administered immediately prior to reperfusion) and ηArg-η2′6′-Dmt-ηLys-ηPhe-NH2 in the reperfusion solution; 4. Positive control using ischemic preconditioning; 3 cycles of 5 min I/R before index ischemia).\nHearts will be exposed to global no-flow ischemia by stopping perfusion for 20 minutes. At the end of the index ischemia, static buffer from the perfusion lines will be washed out (via an accessory port proximal to the aortic cannula) and reperfusion ensued for 120 minutes. Administration of all compounds in the perfusate will be accomplished via dissolving the compound(s) in solution prior to administration. The reperfusion bolus dose will be delivered to the heart via syringe through a drug-delivery port just above the aortic cannula. At the end of the 2 h reperfusion protocol, the LV will be dissected, sliced into 5 mm-thick slices, incubated in triphenyltetrazolium chloride (TTC) for 10 minutes (37° C.), and digitally photographed for subsequent infarct size analysis. Infarct sizes are expressed as the infarcted area as a percentage of the LV (in the global ischemia model, the entire LV constitutes the zone-at-risk).", "key": {"[1]": {"settings": "peptoid 0.01 nM, 0.1 nM, cyclosporin-A 0.2 μM"}}, "data": [{"substance": "ηArg-η2′6′-Dmt-ηLys-ηPhe-NH2", "values": [{"measurement": "Incidence of VT/VF (ventricular tachycardia and/or fibrillation)", "setting": "0.01 nM/0.1 nM(30 min R)", "result": "protection against the incidence of VT/VF"}, {"measurement": "Infarct size (infarcted area as a percentage of the LV)", "setting": "1 nM or 0.1 nM or 0.001 nM or 0.01 nM/0.1 nM(30 min R), 20 min global ischemia, compared to control group", "result": "lower incidence of infarction (infarction size)"}, {"measurement": "Baseline coronary flow rates", "setting": "groups receiving 0.01 nM", "result": "slightly lower than other groups"}, {"measurement": "Baseline heart rate", "setting": "[1]", "result": "no discernable effects"}, {"measurement": "Baseline left ventricular developed pressure", "setting": "[1]", "result": "no discernable effects"}, {"measurement": "Baseline rates of contraction/relaxation", "setting": "[1]", "result": "no discernable effects"}, {"measurement": "Coronary flow rates", "setting": "peptoid 1 nM, 0.1 nM, 0.01 nM to 0.1 nM, cyclosporin-A 0.2 uM, whole time or at reperfusion, vs control", "result": "no differences in coronary flow rates"}]}]}
